From US9850283B2, “Macrocyclic inhibitors of the PD-1/PD-L1 and CD80(B7-1)/PD-L1 protein/protein interactions” (BRISTOL-MYERS SQUIBB COMPANY, priority 2013, dated 2017)
Where two headings read alike, the source gives them in different places. Positions of bridges follow the written chain, without caps; N, C: chain ends. Non-standard residues stand in square brackets, D forms with d. Residues, ends and D or L forms follow the SMILES beside them. ξ: configuration not given here. Trp(2-Ph) = N[C@@H](Cc1c(-c2ccccc2)[nH]c2ccccc12)C(=O)O; Phe(3,4,5-F3) = N[C@@H](Cc1cc(F)c(F)c(F)c1)C(=O)O; Phe(F5) = N[C@@H](Cc1c(F)c(F)c(F)c(F)c1F)C(=O)O; Pro(trans-4-F) = O=C(O)[C@@H]1C[C@@H](F)CN1; Hyp = O=C(O)[C@@H]1C[C@@H](O)CN1; NMeF = CN[C@@H](Cc1ccccc1)C(=O)O; dHyp = O=C(O)[C@H]1C[C@H](O)CN1; NMeNle = CCCC[C@H](NC)C(=O)O; Pip = O=C(O)[C@@H]1CCCCN1; dPip = O=C(O)[C@H]1CCCCN1; ξR = N=C(N)NCCCC(N)C(=O)O; NMeA = CN[C@@H](C)C(=O)O; Orn = NCCC[C@H](N)C(=O)O; Dab = NCC[C@H](N)C(=O)O; Dap = NC[C@H](N)C(=O)O; Sar = CNCC(=O)O

How the values were obtained:
Human PD-L1/PD-1 = molecular target: T1, Human PD-L1/PD-1 (Homo sapiens, UniProt Q9NZQ7); assay: HTRF PD-1-Ig/PD-L1-His binding assay (human PD-L1); details: cluster symbol; read-out: HTRF IC50 cluster
T1 construct: made in house; host or cells: HEK293T
In short: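 Steps: truncated PD-1-Ig and PD-L1-His fusions are incubated in dPBS containing 0.1% (w/v) BSA and 0.05% (v/v) Tween-20. Detection antibodies are then added (Eu cryptate anti-Ig at 1 nM final, APC anti-His at 20 nM final), and time-resolved FRET is measured.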

[1] = molecular target: T2, LK35.2-hPD-L1 cells / PE-labeled PD-1-Ig (Homo sapiens, UniProt Q9NZQ7); assay: LK35.2-hPD-L1 cell binding high-content screening assay; format: cell-based; details: cluster symbol, read-out: CBA IC50 cluster
T2 construct: expressed in transfected cells; host or cells: LK35.2 mouse B cell line
In short: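 Readout: high-content imaging of PE-PD-1-Ig bound to LK35.2-hPD-L1 cells. Cells plated overnight (RPMI/10% FCS); compound + 1 nM PE-PD-1-Ig, 1 h, 37 °C; 3× dPBS wash before imaging.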

[2] = cell binding assay, cell line not given
[3] = cell line of CBA not given (LK35.2-hPD-L1 or 293T-hPD-L1)

T2 sequence (Q9NZQ7 19-290): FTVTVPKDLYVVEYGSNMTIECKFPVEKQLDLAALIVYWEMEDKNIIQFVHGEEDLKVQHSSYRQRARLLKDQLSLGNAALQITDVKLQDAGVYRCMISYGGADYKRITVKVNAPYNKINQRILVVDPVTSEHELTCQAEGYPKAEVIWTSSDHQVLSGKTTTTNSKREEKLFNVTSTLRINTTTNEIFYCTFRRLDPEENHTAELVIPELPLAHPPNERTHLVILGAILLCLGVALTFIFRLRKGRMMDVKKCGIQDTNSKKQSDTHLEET
T1 sequence (Q9NZQ7 with tags, fused parts or gaps): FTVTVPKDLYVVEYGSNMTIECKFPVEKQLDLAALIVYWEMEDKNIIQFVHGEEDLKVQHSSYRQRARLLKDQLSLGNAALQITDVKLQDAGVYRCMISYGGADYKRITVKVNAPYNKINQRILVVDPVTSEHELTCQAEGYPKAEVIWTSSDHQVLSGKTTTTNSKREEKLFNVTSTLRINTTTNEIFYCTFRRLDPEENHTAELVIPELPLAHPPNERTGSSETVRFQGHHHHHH

SMILES | IC50 (Human PD-L1/PD-1) | IC50 [1, 2] | IC50 [1, 3]
CCCC[C@H]1C(=O)N(C)[C@@H](CCCC)C(=O)N[C@@H](C)C(=O)N[C@H](C(=O)NCC(N)=O)CSCC(=O)N[C@@H](Cc2ccc(O)cc2)C(=O)N(C)[C@@H](C)C(=O)N[C@@H](CC(=O)O)C(=O)N2CCC[C@H]2C(=O)N[C@@H](Cc2cnc[nH]2)C(=O)N[C@@H](CCC(N)=O)C(=O)N2C[C@H](O)C[C@H]2C(=O)N[C@@H](Cc2c[nH]c3ccccc23)C(=O)N[C@@H](CCN)C(=O)N[C@@H](Cc2c[nH]c3ccccc23)C(=O)N1C [Example 5039] ({CH2CO}-Y[NMeA]DPHQ[Hyp]W[Dab]W[NMeNle][NMeNle]ACG-NH2; thioether N-14) | 0.385 to 6.74 nM | 0.158 to 4.71 nM | 
CCCC[C@H]1C(=O)N(C)[C@@H](CCCC)C(=O)N[C@@H](CCCNC(=N)N)C(=O)N[C@H](C(=O)NCC(N)=O)CSCC(=O)N[C@@H](Cc2ccc(O)cc2)C(=O)N2CCCC[C@H]2C(=O)N[C@@H](CC(N)=O)C(=O)N2CCC[C@H]2C(=O)N[C@@H](CN)C(=O)N[C@@H](CC(C)C)C(=O)N2C[C@H](O)C[C@H]2C(=O)N[C@@H](Cc2c[nH]c3ccccc23)C(=O)N[C@@H](CO)C(=O)N[C@@H](Cc2c[nH]c3ccccc23)C(=O)N1C [Example 1236] ({CH2CO}-Y[Pip]NP[Dap]L[Hyp]WSW[NMeNle][NMeNle]RCG-NH2; thioether N-14) | 6.76 to 30.3 nM |  | 0.158 to 4.71 nM
CCCC[C@H]1C(=O)N(C)CC(=O)N[C@@H](CC(=O)O)C(=O)N[C@@H](C(C)C)C(=O)N(C)[C@@H](Cc2ccccc2)C(=O)N[C@@H](Cc2ccc(O)cc2)C(=O)N(C)CC(=O)N[C@@H](Cc2c[nH]c3ccccc23)C(=O)N[C@@H](Cc2ccc(O)cc2)C(=O)N2CCC[C@@H]2C(=O)N[C@H](C(=O)NCC(N)=O)CSCC(=O)N[C@@H](Cc2ccccc2)C(=O)N(C)[C@@H](Cc2ccccc2)C(=O)N1C [Example 3565] (HELM PEPTIDE1{[O=C(C[*:3])[*:2]].F.[meF].[CCCC[C@@H](C(=O)[*:2])N(C)[*:1]].[Sar].D.V.[meF].Y.[Sar].W.Y.[dP].C.G.[am]}$PEPTIDE1,PEPTIDE1,1:R3-14:R3$$$V2.0) | > 30.5 nM | > 74.3 nM | 
CCCC[C@H]1C(=O)N(C)CC(=O)N[C@@H](CC(=O)O)C(=O)N[C@@H](C(C)C)C(=O)N(C)[C@@H](Cc2ccccc2)C(=O)N[C@@H](Cc2ccc(O)cc2)C(=O)N(C)CC(=O)N[C@@H](Cc2c[nH]c3ccccc23)C(=O)N[C@@H](Cc2ccc(O)cc2)C(=O)N[C@@H](CC(C)C)C(=O)N[C@H](C(=O)NCC(N)=O)CSCC(=O)N[C@@H](Cc2c(F)c(F)c(F)c(F)c2F)C(=O)N(C)[C@@H](Cc2ccccc2)C(=O)N1C [Example 3078] ({CH2CO}-[Phe(F5)][NMeF][NMeNle][Sar]DV[NMeF]Y[Sar]WYLCG-NH2; thioether N-13) | > 30.5 nM |  | > 74.3 nM
CCCC[C@H]1C(=O)N(C)[C@@H](CCCC)C(=O)N[C@@H](CCCN)C(=O)N[C@H](C(=O)NCC(N)=O)CSCC(=O)N[C@@H](Cc2ccc(O)cc2)C(=O)N(C)[C@@H](C)C(=O)N[C@@H](CC(N)=O)C(=O)N2CCC[C@H]2C(=O)N[C@@H](Cc2c[nH]cn2)C(=O)N[C@@H](CC(C)C)C(=O)N2C[C@H](O)C[C@H]2C(=O)N[C@@H](Cc2c[nH]c3ccccc23)C(=O)N[C@@H](CCN)C(=O)N[C@@H](Cc2c[nH]c3ccccc23)C(=O)N1C [Example 1157] ({CH2CO}-Y[NMeA]NPHL[Hyp]W[Dab]W[NMeNle][NMeNle][Orn]CG-NH2; thioether N-14) | 6.76 to 30.3 nM |  | 0.158 to 4.71 nM
CCCC[C@H]1C(=O)N(C)[C@@H](CCCC)C(=O)N[C@@H](CC(C)C)C(=O)N[C@H](C(=O)NCC(N)=O)CSCC(=O)N[C@@H](Cc2ccc(O)cc2)C(=O)N(C)[C@@H](C)C(=O)N[C@@H](CCN)C(=O)N2CCC[C@H]2C(=O)N[C@@H](Cc2c[nH]cn2)C(=O)N[C@@H](CCC(=O)O)C(=O)N2C[C@H](O)C[C@H]2C(=O)N[C@@H](Cc2c[nH]c3ccccc23)C(=O)N[C@@H](CO)C(=O)N[C@@H](Cc2c[nH]c3ccccc23)C(=O)N1C [Example 5133] ({CH2CO}-Y[NMeA][Dab]PHE[Hyp]WSW[NMeNle][NMeNle]LCG-NH2; thioether N-14) | 0.385 to 6.74 nM | 4.78 to 72.9 nM | 
CCCC[C@H]1C(=O)N(C)[C@@H](CCCC)C(=O)N[C@@H](CCCNC(=N)N)C(=O)N[C@H](C(=O)NCC(N)=O)CSCC(=O)N[C@@H](Cc2ccccc2)C(=O)N(C)[C@@H](C)C(=O)N[C@@H](CC(N)=O)C(=O)N2C[C@H](F)C[C@H]2C(=O)N[C@@H](Cc2cnc[nH]2)C(=O)N[C@@H](CC(C)C)C(=O)N(C)CC(=O)N[C@@H](Cc2c[nH]c3ccccc23)C(=O)N[C@@H](CO)C(=O)N[C@@H](Cc2c[nH]c3ccccc23)C(=O)N1C [Example 5012] ({CH2CO}-F[NMeA]N[Pro(trans-4-F)]HL[Sar]WSW[NMeNle][NMeNle]RCG-NH2; thioether N-14) | > 30.5 nM | > 74.3 nM | 
CCCC[C@H]1C(=O)N(C)[C@@H](CCCC)C(=O)N[C@@H](CCCNC(=N)N)C(=O)N[C@H](C(=O)NCC(N)=O)CSCC(=O)N[C@@H](Cc2ccc(O)cc2)C(=O)N(C)[C@@H](C)C(=O)N[C@@H](CC(N)=O)C(=O)N2CCC[C@H]2C(=O)N[C@@H](CN)C(=O)N[C@@H](CC(C)C)C(=O)N2C[C@H](O)C[C@H]2C(=O)N[C@@H](Cc2c[nH]c3ccccc23)C(=O)N[C@@H](CC(N)=O)C(=O)N[C@@H](Cc2c[nH]c3ccccc23)C(=O)N1C [Example 6033] ({CH2CO}-Y[NMeA]NP[Dap]L[Hyp]WNW[NMeNle][NMeNle]RCG-NH2; thioether N-14) | 0.385 to 6.74 nM | 0.158 to 4.71 nM | 
CCCC[C@H]1C(=O)N2C[C@@H](O)C[C@@H]2C(=O)N[C@@H](CC(N)=O)C(=O)N[C@@H](C(C)C)C(=O)N(C)[C@@H](Cc2ccccc2)C(=O)N[C@@H](Cc2ccc(O)cc2)C(=O)N2CCCC[C@@H]2C(=O)N[C@@H](Cc2c[nH]c3ccccc23)C(=O)N[C@@H](Cc2ccc(O)cc2)C(=O)N[C@@H](CCCCN)C(=O)N[C@H](C(=O)NCC(N)=O)CSCC(=O)N[C@@H](Cc2cc(F)c(F)c(F)c2)C(=O)N(C)[C@@H](Cc2ccccc2)C(=O)N1C [Example 3591] ({CH2CO}-[Phe(3,4,5-F3)][NMeF][NMeNle][dHyp]NV[NMeF]Y[dPip]WYKCG-NH2; thioether N-13) | 0.385 to 6.74 nM | 0.158 to 4.71 nM | 
CCCC[C@H]1C(=O)N(C)[C@@H](CCCC)C(=O)N[C@@H](CCN)C(=O)N[C@H](C(=O)NCC(N)=O)CSCC(=O)N[C@@H](Cc2ccc(O)cc2)C(=O)N(C)[C@@H](C)C(=O)N[C@@H](CC(N)=O)C(=O)N2CCC[C@H]2C(=O)N[C@@H](Cc2cnc[nH]2)C(=O)N[C@@H](CCC(N)=O)C(=O)N2C[C@H](O)C[C@H]2C(=O)N[C@@H](Cc2c[nH]c3ccccc23)C(=O)N[C@@H](CO)C(=O)N[C@@H](Cc2c[nH]c3ccccc23)C(=O)N1C [Example 5041] ({CH2CO}-Y[NMeA]NPHQ[Hyp]WSW[NMeNle][NMeNle][Dab]CG-NH2; thioether N-14) | 6.76 to 30.3 nM | 0.158 to 4.71 nM | 
CCCC[C@H]1C(=O)N(C)[C@@H](CCCC)C(=O)N[C@@H](CCN)C(=O)N[C@H](C(=O)NCC(N)=O)CSCC(=O)N[C@@H](Cc2ccc(O)cc2)C(=O)N(C)[C@@H](C)C(=O)N[C@@H](CC(N)=O)C(=O)N2CCC[C@H]2C(=O)N[C@@H](CN)C(=O)N[C@@H](CCC(N)=O)C(=O)N2C[C@H](O)C[C@H]2C(=O)N[C@@H](Cc2c[nH]c3ccccc23)C(=O)N[C@@H](CCN)C(=O)N[C@@H](Cc2c[nH]c3ccccc23)C(=O)N1C [Example 5044] ({CH2CO}-Y[NMeA]NP[Dap]Q[Hyp]W[Dab]W[NMeNle][NMeNle][Dab]CG-NH2; thioether N-14) | 0.385 to 6.74 nM | 0.158 to 4.71 nM | 
CCCC[C@H]1C(=O)N(C)[C@@H](CCCC)C(=O)N[C@@H](CC(C)C)C(=O)N[C@H](C(=O)NCC(N)=O)CSCC(=O)N[C@@H](Cc2ccc(O)cc2)C(=O)N(C)[C@@H](C)C(=O)N[C@@H](CC(N)=O)C(=O)N2CCC[C@H]2C(=O)N[C@@H](Cc2cnc[nH]2)C(=O)N[C@@H](CC(C)C)C(=O)N2C[C@H](O)C[C@H]2C(=O)N[C@@H](Cc2c[nH]c3ccccc23)C(=O)N[C@@H](CO)C(=O)N[C@@H](Cc2c[nH]c3ccccc23)C(=O)N1C [Example 6025] | 0.385 to 6.74 nM | 0.158 to 4.71 nM | 
CCCC[C@H]1C(=O)N(C)[C@@H](CCCC)C(=O)NC(CCCNC(=N)N)C(=O)N[C@H](C(=O)NCC(N)=O)CSCC(=O)N[C@@H](Cc2ccc(O)cc2)C(=O)N(C)[C@@H](C)C(=O)N[C@@H](CC(N)=O)C(=O)N2CCC[C@H]2C(=O)N[C@@H](Cc2cnc[nH]2)C(=O)N[C@@H](CC(C)C)C(=O)N2CCC[C@H]2C(=O)N[C@@H](Cc2c[nH]c3ccccc23)C(=O)N[C@@H](CO)C(=O)N[C@@H](Cc2c(-c3ccccc3)[nH]c3ccccc23)C(=O)N1C (stereo partly shown) [Example 7001] ({CH2CO}-Y[NMeA]NPHLPWS[Trp(2-Ph)][NMeNle][NMeNle][ξR]CG-NH2; thioether N-14) | 0.385 to 6.74 nM | 0.158 to 4.71 nM | 
CCCC[C@H]1C(=O)N(C)[C@@H](CCCC)C(=O)N[C@@H](Cc2cccnc2)C(=O)N[C@H](C(=O)NCC(N)=O)CSCC(=O)N[C@@H](Cc2ccc(O)cc2)C(=O)N(C)[C@@H](C)C(=O)N[C@@H](CC(N)=O)C(=O)N2CCC[C@H]2C(=O)N[C@@H](Cc2cnc[nH]2)C(=O)N[C@@H](CC(C)C)C(=O)N2C[C@H](O)C[C@H]2C(=O)N[C@@H](Cc2c[nH]c3ccccc23)C(=O)N[C@@H](CO)C(=O)N[C@@H](Cc2c[nH]c3ccccc23)C(=O)N1C [Example 7033] | 0.385 to 6.74 nM | 0.158 to 4.71 nM | 
